These results are taken from PMC9009886, “In vitro and in vivo Anti-leishmanial Potential of [Ag (PTA) 4 ]BF 4 and [Ag(HBPz 3 )(PPh 3 )] Silver Complexes” (Revista da Sociedade Brasileira de Medicina Tropical, 2022).

Like-named read-outs stand apart in the source and are kept apart here.

Data set [1] deals with murine peritoneal macrophages. Put plainly: Cytotoxicity (MTT) in murine peritoneal macrophages. It is filed as cell-based, Balb/c (Mus musculus) mice. The settings on record: for CC50: peritoneal macrophages, MTT. As to the method: Peritoneal macrophages were extracted from Balb/c (Mus musculus) mice, from colonies of the Central Vivarium at the INPA, with the approval of the Ethics Committee on the Use of Animals (CEUA - INPA 023/2020; Appendix A). The animals were anesthetized with ketamine hydrochloride (Dopalen®), and a ventral incision was made. The RPMI medium was introduced; and the abdominal massage was performed for macrophage activation, followed by aspiration, and centrifuged at 1,500 g for 10 min. Cell concentration was adjusted to 10[4] macrophages/mL[6].
(§1) The assay was performed in 96-well plates (KASVI®). The RPMI medium was added to the cells at a concentration of 10[4] cells/mL/well. The metal complexes were added at concentrations of […] in triplicate as […], and Glucantime® was used at the same concentration as the metal complexes. The negative controls used DMSO at 4 concentrations (2%, 1%, 0.50%, and 0.25%), and the RMPI medium containing the cells remained exposed to the substance for up to 24, 48, and 72 h.
(§2) After each period, a solution of [3-(4,5-dimethylthiazol-2yl) -2,5-diphenyltetrazolium] bromide (MTT) was added to the wells at (concentration of 0.5 mg/mL). The plates were incubated for 4 h at 37 °C and then subjected to spectrophotometry (Biotek®) at an absorbance of 590 nm. Three independent trials were performed with peritoneal macrophages and human monocytes.

For another data set, the system named is mammalian TrxR. Also on record: method as in PMID 33238608. The settings on record: purified enzyme and cell extracts; cited from earlier work.
The subject of data set [2] is lesions caused by L. (L.) amazonensis. The data set can be described thus: Topical treatment of lesions in hamsters infected with L. (L.) amazonensis. It is filed as in vivo, Mesocricetus auratus. The following applies: for Lesion volume (in words): gel topically 0.3 mg/day once a day, Glucantime IM 3 mg (Sb5)/kg/day, 30 days, Ag2 effect after the 14th day. As to the method: (§3) To prepare the Carbopol®-based gel, Nipagin® was mixed with distilled water until its total solubilization, and then Carpobol® was added. Then, the metal complex was added and incorporated separately in each gel, and triethonolamine was added gradually until a thick gel was obtained. Finally, the metal complexes were mixed at a concentration of 3 mg/L, a value defined for comparative purposes with the positive control of the study (Glucantime®) administered at the same concentration via the intramuscular (IM) route.
(§4) For the assays, 72 adult male aged 60-days golden hamsters (Mesocricetus auratus) that were free of pathogens and had been previously obtained from the Central Vivarium at the INPA (CEUA 060/2018) were used [Appendix C]. The animals were housed in stainless steel cages in air-conditioned rooms, with controlled light, temperature (22-25 °C), humidity (50-60%), and food and water ad libitum.
Animals were separated into six groups. Five groups were infected with 100 µL of a solution containing 10[6] promastigote/mL of Leishmania spp. The first experiment involved 36 animals infected with L. (L.) amazonensis, and the second experiment involved 36 animals infected with L. (V.) guyanensis. Animals were divided into the following groups:
• Group I: Uninfected control • Group II: Untreated, infected control • Group III: Infected and treated with Glucantime® (IM) • Group IV: Infected and treated with Ag1 (lesions treated topically once a day) • Group V: Infected and treated with Ag2 (lesions treated topically once a day) • Group VI: Infected and treated with gel without the addition of complexes (lesions treated topically once a day)
To evaluate the course of infection, the total volume of the lesion (length, width, and height) was measured using a caliper (Zaas® Precision). Animals were weighed once per week. After 30 days of treatment, the animals were euthanized using ketamine hydrochloride (Dopalen®) combined with xylazine hydrochloride (Anasedan®) following the Animal Use Ethics Commission (CEUA) protocols (060/2018).
For parasitological studies, a sample of the tissue from the lesion region lesion in each animal was sectioned, and the fragment was printed on a glass slide and stained using the Panoptic kit (Laborclin®). The slides were evaluated using optical microscopy, 30 fields were counted, and the analysis and quantification of infected and uninfected cells and the quantity of internalized amastigote forms were performed. Fragments of each animal’s skin lesions and liver were also sectioned and cultured in an NNN medium for 7 days. After this period, an aliquot containing the fragments was evaluated using optical microscopy for parasitological analysis.
For the in vivo results, we used two-way analysis of variance to evaluate the statistical significance between the groups, followed by the Tukey test to compare the means of the groups at a 95% confidence interval.

The subject of data set [3] is large panel of cancer cell lines. Also noted: method as in PMID 33238608. The following applies: cited from earlier work.
The next data set deals with human monocytes. Put plainly: Cytotoxicity (MTT) in human monocytes. It is filed as cell-based. The following applies: human monocytes; for CC50: MTT. As to the method:
Human monocytes were obtained after approval from the Research Ethics Committee (CEP-UFAM: 29406319.2.0000.5020) (Appendix B). Blood samples were collected from all patients. Phosphate-buffered saline (PBS) 1 x was added, and the blood/PBS was added gently on Ficoll-Histopaque (Sigma-Aldrich®) [density of 1077] and centrifuged for 30 min/200 g[7]. Peripheral blood mononuclear cells were collected, added PBS 1 x, and centrifuged for 3 min at 400 × g. The cell concentration was adjusted to 10[4] monocytes/mL[7].
as §1, §2

Data set [4] deals with amastigote forms of L. (L.) amazonensis internalized in murine peritoneal macrophages. The data set can be described thus: Assay with amastigote forms of L. (L.) amazonensis in peritoneal macrophages. It is filed as cell-based, Leishmania (Leishmania) amazonensis. As to the method: (§5) The assay against amastigote forms was performed using murine peritoneal macrophages and human monocytes, obtained as described for the cytotoxicity assay. The cells were incubated for 48 h in a 24 well-plate containing glass coverslips with the RPMI medium, and cell volume adjusted to 10[5] macrophages/monocyte/mL.
(§6) The adhered cells were infected with promastigote forms of Leishmania spp. and left for 2 h. The test substances were then added at the concentrations used in previous trials and exposed for 24, 48, and 72 h. Coverslips were stained using a Panoptic kit (Laborclin® - Laborclin Products for Laboratories Ltd, Pinhais, Brazil) and quantified using optical microscopy at 400 × magnification. A total of 100 cells were quantified to evaluate the number of infected and uninfected macrophages and internalized amastigotes. Three independent assays were performed on peritoneal macrophages and human monocytes.
(§7) The SI is the relationship between the cytotoxic activity of the tested compound and its anti-leishmanial activity. In our study, the SI was calculated from the ratio of cytotoxicity for macrophages/monocytes with a cytotoxic concentration at 50% (CC50) and action against amastigote forms in each of these cell types with an inhibitory concentration at 50% (IC50), using the equation: SI = CC50IC50-AMA^3
(§8) Statistical analysis was performed using linear regression to calculate IC50 using GraphPad Prism® (GraphPad Software Inc. version 6.0, for Windows). Results are expressed as mean ± standard deviation.

Data set [5] deals with lesions caused by L. (V.) guyanensis. Put plainly: Topical treatment of lesions in hamsters infected with L. (V.) guyanensis. It is filed as in vivo, Mesocricetus auratus. As to the method: as §3, §4
Animals were separated into six groups. Five groups were infected with 100 µL of a solution containing 10[6] promastigote/mL of Leishmania spp. The first experiment involved 36 animals infected with L. (L.) amazonensis, and the second experiment involved 36 animals infected with L. (V.) guyanensis. Animals were divided into the following groups: […]
To evaluate the course of infection, the total volume of the lesion (length, width, and height) was measured using a caliper (Zaas® Precision). […]
For parasitological studies, a sample of the tissue from the lesion region lesion in each animal was sectioned, and the fragment was printed on a glass slide and stained using the Panoptic kit (Laborclin®). The slides were evaluated using optical microscopy, 30 fields were counted, and the analysis and quantification of infected and uninfected cells and the quantity of internalized amastigote forms were performed. […] After this period, an aliquot containing the fragments was evaluated using optical microscopy for parasitological analysis. […]

In data set [6] the test system is amastigote forms of L. (V.) guyanensis in murine peritoneal macrophages. The data set can be described thus: Assay with amastigote forms of L. (V.) guyanensis in peritoneal macrophages. It is filed as cell-based, Leishmania (Viannia) guyanensis. As to the method:
as §5, §6, §7, §8

For data set [7], the system named is promastigote forms of Leishmania (Leishmania) amazonensis (IM5584). The data set can be described thus: Assay with promastigote forms, L. (L.) amazonensis. The settings on record: L. (L.) amazonensis (IM5584), read-out: IC50 values, promastigote forms. It is filed as cell-based. As to the method:
(§9) We used the species L. (Leishmania) amazonensis [L. (L.) amazonensis] (MHOM/BR/2009/IM5584) and L. (Viannia) guyanensis [L. (V.) guyanensis] (MHOM/BR/1975/M4147), which had been cultivated in the biphasic medium Novy - MacNeal - Nicolle (NNN) and amplified in the RPMI liquid medium (Himedia®). The culture was centrifuged for 15 min at 4,400 g. Parasites were adjusted to a concentration of 10[4] parasites/mL.
(§10) The parasites were used at a concentration of 10[4] parasites/mL. The assay was performed in 96-well plates (KASVI®), and then the same procedure and concentrations of the substances were used in the cytotoxicity assay, with negative control and culture medium containing parasites. The activity of the complexes was evaluated at 24, 48, and 72 h intervals using a Neubauer chamber. In addition, cellular viability was evaluated using the assay. Three independent tests were conducted.
as §8

Data set [8] concerns amastigote forms of L. (L.) amazonensis in human monocytes. Put plainly: Assay with amastigote forms of L. (L.) amazonensis in human monocytes. It is filed as cell-based, Leishmania (Leishmania) amazonensis. As to the method:
as §5, §6, §8

In data set [9] the test system is amastigote forms of L. (V.) guyanensis in human monocytes. The data set can be described thus: Assay with amastigote forms of L. (V.) guyanensis in human monocytes. It is filed as cell-based, Leishmania (Viannia) guyanensis. As to the method: as §5, §6, §8
The test system of data set [10] is promastigote forms of Leishmania (Viannia) guyanensis (M4147). The data set can be described thus: Assay with promastigote forms, L. (V.) guyanensis. It is filed as cell-based. As to the method:
as §9, §10, §8

As to `[Ag+].c1ccc(P(c2ccccc2)c2ccccc2)cc1.c1cnn([BH-](n2cccn2)n2cccn2)c1` [Ag2, [Ag(HBPz3)(PPh3)]], the “Cytotoxicity (in words)” value (in [1] (murine peritoneal macrophages); in the data set on human monocytes) was “did not show cytotoxic activity” throughout. Also, the “TrxR inhibition (in words)” value in the data set on mammalian TrxR is “very strong inhibitor”. Further, in data set [2] (after 30 days of treatment), the “Infected cells / internalized amastigotes in lesion fragments” value is reported as “statistically significant difference compared to the group without treatment”. Moreover, the “Mean difference in lesion volume versus Glucantime” value in data set [2] (after the 14th day of treatment, no statistical difference) was 4.38. Besides, the “Lesion volume (in words)” value in data set [2] is listed as “reduction in lesion volume”. Moreover, in data set [3], the “Cytotoxic activity toward cancer cell lines (in words)” value was “remarkable cytotoxic activity”.
With “meglumine antimoniate [Glucantime®, reference compound]”, the CC50 (commonly the concentration at which the toxic effect on the cells reaches its halfway point) was 179 ± 0.23 µM in [1] (24 h); 205.2 ± 1.25 µM in data set [1] (48 h); 212 ± 2.48 µM in data set [1] (72 h); 149 ± 1.52 µM with human monocytes (24 h); 255 ± 2.74 µM in the data set with human monocytes (48 h); 398.4 ± 1.18 µM with human monocytes (72 h). In addition, the IC50 (in general, the concentration at which inhibition is half-maximal) worked out at 57.1 ± 0.77 µM in data set [4] (24 h); 279.2 ± 1.95 µM in data set [4] (48 h); 318.7 ± 1.48 µM in data set [4] (72 h); 48.2 ± 0.77 µM in [6] (24 h); 70.2 ± 1.62 µM in data set [6] (48 h); 101 ± 1.02 µM in data set [6] (72 h). Moreover, the concentration for half-maximal inhibition (IC50) in data set [7] (24 h) came to 292.1 ± 2.4 µM; in data set [7] (48 h) it was 343.1 ± 2.37 µM; in data set [7] (72 h) it was 435.6 ± 3.03 µM; in [8] (24 h), 294.6 ± 0.38 µM; in data set [8] (48 h) it was 317.2 ± 1.75 µM; in data set [8] (72 h), 391 ± 1.38 µM. Moreover, the IC50 came out at 374.7 ± 0.64 µM in data set [9] (24 h); 372.6 ± 1.75 µM in [9] (48 h); 427.8 ± 1.32 µM in data set [9] (72 h); 286.6 ± 1.28 µM in data set [10] (24 h); 376.5 ± 2.74 µM in data set [10] (48 h); 453.7 ± 3.18 µM in data set [10] (72 h). Also, the results for the “Viable parasites in cultures of lesion fragments (NNN medium)” value in data set [5] and in [2] were “presence of viable parasites” and “Viable parasites were observed”, respectively. The Clinical cure result in data set [2] (30 days of treatment) is listed as “no clinical cure was obtained”. Moreover, the “Lesion volume (in words)” value in data set [2] is given as “reduction in lesion volume”.
